Tests used:
[1] = tested on: HEK293sieSTAT3(Y640F); assay: drug sensitivity score (DSS), cytotoxicity CellTox Green (DSS (dimensionless)); higher = more cytotoxic; extreme values may be limits of the assay; details: 72 h; STAT3 variant: Y640F (constitutively active)
How it was run: (§1)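 Compounds were acoustically pre-plated in 384-well plates at 5 concentrations spaced by 10-fold dilutions, and HEK293 cells overexpressing wild-type or mutant STAT3 and carrying a STAT3-dependent luciferase reporter were added at 100,000 cells/ml in 20 μl. After 72 hours at 37°C and 5% CO2, the plates were read on a PHERAstar FS for CellTox Green fluorescence (485/520 nm) and then CellTiter-Glo luminescence. A drug sensitivity score derived from dose-response curve area was calculated in Breeze from values normalised to negative and positive control wells.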

[2] = tested on: HEK293sieSTAT3(wt); assay: as above; details: 72 h; STAT3 variant: wild type
How it was run: as §1

[3] = tested on: HEK293sieSTAT3(Y640F); assay: drug sensitivity score (DSS), viability CellTiter-Glo (DSS (dimensionless)); higher = more growth inhibition; extreme values may be limits of the assay; details: 72 h; STAT3 variant: Y640F (constitutively active)
How it was run: as §1

[4] = tested on: HEK293sieSTAT3(wt); assay: as above; details: 72 h; STAT3 variant: wild type
How it was run: as §1

| SMILES | drug sensitivity score [1] | drug sensitivity score [2] | drug sensitivity score [3] | drug sensitivity score [4] |
| --- | --- | --- | --- | --- |
| CCc1cc(Nc2nccc(-c3c(-c4ccc(OC)c(C(=O)Nc5c(F)cccc5F)c4)nc4ccccn34)n2)c(OC)cc1N1CCC(N2CCN(S(C)(=O)=O)CC2)CC1 (top concentration tested 10000 nM) | 0 | 0 | 10.9 | 9.73 |
| CCc1cncnc1N1CCN(Cc2nc3ccc(C(F)(F)F)cc3[nH]2)CC1 (top concentration tested 10000 nM) | 1.05 | 0.48 | 2.33 | 1.35 |
| CCn1c(-c2nonc2N)nc2cnc(Oc3cccc(NC(=O)c4ccc(OCCN5CCOCC5)cc4)c3)cc21 (top concentration tested 10000 nM) | 0.98 | 1.34 | 7.47 | 6.32 |
| CN(c1ccccc1CNc1nc(Nc2ccc3c(c2)CC(=O)N3)ncc1C(F)(F)F)S(C)(=O)=O (top concentration tested 10000 nM) | 1.46 | 6.16 | 10.1 | 11.2 |
| O=C(O)c1ccc(-c2c[nH]c3ncc(-c4ccccc4)cc23)cc1C1CCCC1 (top concentration tested 10000 nM) | 0 | 3.29 | 2.42 | 3.17 |
| C[C@@H]1CN(CC(=O)Nc2ccc3c(c2)Cc2cccc(-c4cc(=O)cc(N5CCOCC5)o4)c2S3)C[C@H](C)O1 (top concentration tested 25000 nM) | 5.17 | 8.78 | 8.24 | 9.16 |
| NCC(=O)Nc1ccc(-n2nc(C(F)(F)F)cc2-c2ccc3c(ccc4ccccc43)c2)cc1 (top concentration tested 25000 nM) | 5.9 | 7.25 | 13.5 | 16.3 |
| Cc1ccc2nc(CN(CCN(Cc3nc4ccc(C)cc4[nH]3)Cc3nc4ccc(C)cc4[nH]3)Cc3nc4ccc(C)cc4[nH]3)[nH]c2c1 (top concentration tested 50000 nM) | 3.51 | 5.64 | 4.22 | 3.52 |
| Cc1nn(C)c(COc2ccc(N3CCN(S(=O)(=O)N(C)C)CC3)cc2)c1-c1cccc2c(CCCOc3cccc4ccccc34)c(C(=O)O)n(CCN3CCOCC3)c12 (top concentration tested 50000 nM) | 7.51 | 7.01 | 9.56 | 5.26 |
| O=c1cc(N2CCOCC2)oc2c(-c3ccccc3)cccc12 (top concentration tested 100000 nM) | 2.63 | 5.12 | 10.6 | 11.8 |
| Oc1c2ccccc2c2c3c(cccc13)N=N2 (top concentration tested 100000 nM) | 0.97 | 2.91 | 7.42 | 6.18 |
| Cn1cc(C[C@@H](N)C(=O)O)c2ccccc21 [1-methyl-D-tryptophan] (top concentration tested 5000 nM) | 0 | 0 | 0 | 0 |
| COc1cc2c(cc1O)CC[C@@H]1[C@@H]2CC[C@]2(C)[C@@H](O)CC[C@@H]12 [2-methoxyestradiol] (top concentration tested 10000 nM) | 0 | 5.9 | 6.57 | 10.6 |
| CC/C(=C(\c1ccc(O)cc1)c1ccc(OCCN(C)C)cc1)c1ccccc1 [4-hydroxytamoxifen] (top concentration tested 10000 nM) | 6.81 | 7.36 | 6.34 | 7.39 |
| Nc1ncnc2c1nc(N)n2[C@@H]1O[C@H](CO)[C@@H](O)[C@H]1O [8-amino-adenosine] (top concentration tested 50000 nM) | 11.1 | 15.1 | 21.9 | 23.9 |
| Nc1ncnc2c1nc(Cl)n2[C@@H]1O[C@H](CO)[C@@H](O)[C@H]1O [8-chloro-adenosine] (top concentration tested 50000 nM) | 2.41 | 7.97 | 16.2 | 18.4 |
| CCCCC/C=C/C=C1/C(=O)C=C[C@@H]1C/C=C\CCCC(=O)O [15D-PGJ2] (top concentration tested 3000 nM) | 0 | 0 | 1.33 | 0 |
| COc1cc(O)c2c(c1)/C=C/C[C@H](O)[C@H](O)C(=O)/C=C\C[C@H](C)OC2=O [(5Z)-7-Oxozeaenol] (top concentration tested 10000 nM) | 2.58 | 6.67 | 3.74 | 4.51 |
| COc1ccc(S(=O)(=O)Nc2cccnc2Nc2ccc(O)cc2)cc1 [ABT-751] (top concentration tested 10000 nM) | 2.68 | 9.49 | 11.4 | 14.3 |
| Cc1ccccc1C(C(=O)NC1CCCCC1)N(C(=O)Cn1ccnc1C)c1cccc(F)c1 (stereo not given) [AGI-5198] (top concentration tested 10000 nM) | 0 | 0 | 0.76 | 1.02 |
| O=C(Nc1cccc(C(F)(F)F)c1)Nc1cc(S(=O)(=O)NC2CC2)ccc1-c1ccsc1 [AGI-6780] (top concentration tested 10000 nM) | 0 | 1.62 | 1.05 | 2.88 |
| COc1ccc2c(OCc3nnc4ccc(-c5ccccc5)nn34)ccnc2c1 [AMG-208] (top concentration tested 2500 nM) | 0.89 | 0.89 | 1.58 | 0.59 |
| CC(C)[C@@H](CS(=O)(=O)C(C)C)N1C(=O)[C@@](C)(CC(=O)O)C[C@H](c2cccc(Cl)c2)[C@H]1c1ccc(Cl)cc1 [AMG-232] (top concentration tested 1000 nM) | 0 | 0 | 0 | 0 |

| SMILES | drug sensitivity score [1] | drug sensitivity score [2] | drug sensitivity score [3] | drug sensitivity score [4] |
| --- | --- | --- | --- | --- |
| Cc1csc(-c2nnc(Nc3ccc(Oc4ncccc4-c4ccnc(N)n4)cc3)c3ccccc23)c1 [AMG-900] (top concentration tested 1000 nM) | 0 | 0 | 4.35 | 3.01 |
| CC1CCC(n2c3cnccc3c3cnc(Nc4ccc5c(n4)CCN(C(=O)CO)C5)nc32)CC1 (stereo not given) [AMG-925] (top concentration tested 1000 nM) | 0 | 2.08 | 5.44 | 5.61 |
| COCC1(CO)C(=O)C2CCN1CC2 (stereo not given) [APR-246] (top concentration tested 10000 nM) | 0 | 0 | 0 | 1.99 |
| CC(C)[C@H](C(=O)Nc1ccc(C(=O)NO)cc1)c1ccccc1 [AR-42] (top concentration tested 10000 nM) | 5.41 | 8.7 | 14.4 | 16.5 |
| CNC(=O)c1ccc(N2C(=S)N(c3cnc(C#N)c(C(F)(F)F)c3)C(=O)C23CCC3)cc1F [ARN 509] (top concentration tested 10000 nM) | 0 | 0 | 2.68 | 2.33 |
| COc1cc(N2CCC(N3CCN(C)CC3)CC2)ccc1Nc1ncnc(Nc2ccccc2S(=O)(=O)C(C)C)n1 [ASP3026] (top concentration tested 10000 nM) | 0.7 | 4.8 | 7.3 | 8.01 |
| O=C(NC1CCNCC1)c1n[nH]cc1NC(=O)c1c(Cl)cccc1Cl [AT7519] (top concentration tested 10000 nM) | 4.11 | 12.2 | 16.7 | 18.6 |
| O=C(Nc1c[nH]nc1-c1nc2ccc(CN3CCOCC3)cc2[nH]1)NC1CC1 [AT9283] (top concentration tested 1000 nM) | 0 | 0.75 | 0.91 | 1.49 |
| CN[C@@H](C)C(=O)N[C@H]1CN(C(=O)CC(C)C)CC[C@H]2CC[C@@H](C(=O)NC(c3ccccc3)c3ccccc3)N2C1=O [AT-406] (top concentration tested 10000 nM) | 12.6 | 33.2 | 8.75 | 17.9 |
| CC[C@H](CC#N)OC(=O)N[C@@H](C)c1cccc(NC(=O)Nc2ccc(-c3cnco3)c(OC)c2)c1 [AVN944] (top concentration tested 10000 nM) | 1.07 | 6.87 | 17.1 | 20.7 |
| COc1cc(N2CCN(C)CC2)ccc1Nc1nccc(-c2cn(C)c3cnccc23)n1 [AZ191] (top concentration tested 10000 nM) | 1.68 | 2.77 | 6.19 | 4.19 |
| COc1cc(OC2CCN(C)CC2)ccc1Nc1ncc2c(n1)n(C1CCCC1)c(=O)n2C [AZ 3146] (top concentration tested 10000 nM) | 4.52 | 11.4 | 8.94 | 11.3 |
| CC(C)Oc1cc(Nc2nc(N[C@@H](C)c3ccc(F)cn3)ncc2Cl)n[nH]1 [AZ-23] (top concentration tested 1000 nM) | 0 | 1.27 | 3.11 | 6.5 |
| N[C@@H]1CCCN(c2c(/C=C3\SC(=O)NC3=O)cccc2-c2ccccc2)C1 [AZD1208] (top concentration tested 10000 nM) | 0 | 0 | 0 | 0 |
| Cc1cc(Nc2nc(N[C@@H](C)c3ncc(F)cn3)ncc2Cl)[nH]n1 [AZD1480] (top concentration tested 1000 nM) | 0.04 | 0.43 | 0 | 0.06 |
| CNC(=O)c1cccc(-c2ccc3c(N4CCOC[C@@H]4C)nc(N4CCOC[C@@H]4C)nc3n2)c1 [AZD2014] (top concentration tested 10000 nM) | 0 | 4.19 | 18 | 20.1 |
| COc1cc(CCc2cc(NC(=O)c3ccc(N4CC(C)NC(C)C4)cc3)n[nH]2)cc(OC)c1 (stereo not given) [AZD4547] (top concentration tested 1000 nM) | 0 | 0.01 | 1.23 | 0.43 |
| CN(C)C(=O)c1ccc(S(=O)(=O)c2ccc(NC(=O)[C@@](C)(O)C(F)(F)F)c(Cl)c2)cc1 [AZD7545] (top concentration tested 10000 nM) | 0 | 0 | 0.82 | 0.28 |
| NC(=O)Nc1cc(-c2cccc(F)c2)sc1C(=O)N[C@H]1CCCNC1 [AZD7762] (top concentration tested 1000 nM) | 4.24 | 7.16 | 14.9 | 16.8 |
| COc1ccc(-c2ccc3c(N4CCOC[C@@H]4C)nc(N4CCOC[C@@H]4C)nc3n2)cc1CO [AZD8055] (top concentration tested 10000 nM) | 0 | 3.7 | 25.7 | 26.8 |
| N#Cc1ccc2[nH]c(O)c(-c3ccc(CN4CCOCC4)cn3)c2c1 [AZD-1080] (top concentration tested 10000 nM) | 0 | 2.84 | 1.14 | 0.74 |
| Cc1ncc(-c2ccnc(Nc3ccc(S(C)(=O)=O)cc3)n2)n1C(C)C [AZD-5438] (top concentration tested 10000 nM) | 5.66 | 13.8 | 9.27 | 15.4 |
